Values quoted from earlier work as cited in US20250353815A1, “AMINO ACID HAVING FLUORINE AT a-POSITION, AND DERIVATIVE OF SAME” (SynCrest Inc., priority 2022, published 2025).

How the values were obtained:
DNA methyltransferase [1] = test system: DNA methyltransferase
DNA methyltransferase [2] = details: inhibition of DNA methyltransferase

IC50 (DNA methyltransferase [2]): 115 nM
Compound: O=C(O)[C@H](Cc1c[nH]c2ccccc12)N1C(=O)c2ccccc2C1=O [RG-108, N-phthalyl-L-tryptophan]
reprogramming of somatic cells into iPS cells (human somatic cells): promotes the reprogramming
binding to the active site of the enzyme in molecular modeling (DNA methyltransferase [1]): bind directly to the active site of the enzyme
reprogramming of somatic cells into iPS cells (mouse somatic cells): promotes the reprogramming
